Assay results: US9474790B2, “Stable, protracted GLP-1/glucagon receptor co-agonists for medical use” (Novo Nordisk A/S, priority 2013, dated 2016)
Numbered stars: 1 amine (or outer) side, 2 acyl side, 3 side chain; on linkers, the order of the positions; unused ones are H or OH. Square brackets hold non-standard residues; d marks the D form. Side chains are listed from the residue outwards. Peptide text beside a SMILES is read from it. * marks the point of attachment. C18 diacid = O=C(O)CCCCCCCCCCCCCCCCC(=O)*; γGlu = O=C(O)[C@H](CCC(=O)[*:2])N[*:1]; AEEA = NCCOCCOCC(=O)O; Aib = CC(C)(N)C(=O)O

What follows are compounds tested against T1, human GLP-1 receptor (Homo sapiens, UniProt P43220) (assay: GLP-1 receptor binding, 125I-GLP-1 displacement SPA on isolated membranes). Conditions: displacement of 125I-GLP-1 from membranes; read-out: IC50 GLP-1R.
T1 construct: expressed in transfected cells; host or cells: BHK cells (parent BHKTS13), clone FCW467-12A/KZ10-1, with CRE luciferase
T1 sequence (P43220 24-463): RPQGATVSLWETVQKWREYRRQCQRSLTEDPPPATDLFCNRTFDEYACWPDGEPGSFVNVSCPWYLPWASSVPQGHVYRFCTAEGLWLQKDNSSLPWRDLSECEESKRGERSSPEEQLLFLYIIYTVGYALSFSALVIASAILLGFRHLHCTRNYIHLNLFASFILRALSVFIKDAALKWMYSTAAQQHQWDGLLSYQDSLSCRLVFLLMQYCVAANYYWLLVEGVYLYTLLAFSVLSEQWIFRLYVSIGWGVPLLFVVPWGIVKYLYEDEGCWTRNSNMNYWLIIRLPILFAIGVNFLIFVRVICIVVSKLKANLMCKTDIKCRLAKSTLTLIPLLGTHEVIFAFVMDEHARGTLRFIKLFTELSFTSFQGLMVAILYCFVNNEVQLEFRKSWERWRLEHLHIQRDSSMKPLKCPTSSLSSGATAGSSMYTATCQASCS
Procedure, shortened: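 SPA displacement of 125I-GLP-1(7-36)NH2 from membranes of BHK cells expressing human GLP-1 receptor, with WGA beads, in 50 mM HEPES, 5 mM EGTA, 5 mM MgCl2, 0.005% Tween 20, pH 7.4. Incubated 2 h at 30°C; IC50 by non-linear regression, run at ≤0.001% or 2.0% final serum albumin.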

Compound | IC50 [nM]
CC(C)C[C@H](NC(=O)[C@H](Cc1c[nH]c2ccccc12)NC(=O)[C@H](C)NC(=O)[C@@H](NC(=O)[C@H](Cc1ccccc1)NC(=O)[C@H](CCC(=O)O)NC(=O)[C@H](CCCNC(=N)N)NC(=O)[C@H](C)NC(=O)[C@H](CCCNC(=N)N)NC(=O)[C@H](CCCNC(=N)N)NC(=O)[C@H](CCCCNC(=O)CC[C@H](NC(=O)COCCOCCNC(=O)COCCOCCNC(=O)CC[C@H](NC(=O)CC[C@H](NC(=O)CCCCCCCCCCCCCCCCC(=O)O)C(=O)O)C(=O)O)C(=O)O)NC(=O)[C@H](CC(=O)O)NC(=O)[C@H](CC(C)C)NC(=O)[C@H](Cc1ccc(O)cc1)NC(=O)[C@H](CCCCN)NC(=O)[C@H](CO)NC(=O)[C@H](CC(C)C)NC(=O)[C@H](CC(=O)O)NC(=O)[C@H](CO)NC(=O)[C@@H](NC(=O)[C@H](Cc1ccccc1)NC(=O)[C@@H](NC(=O)CNC(=O)[C@H](CCC(N)=O)NC(=O)C(C)(C)NC(=O)[C@@H](N)Cc1c[nH]cn1)[C@@H](C)O)[C@@H](C)O)C(C)C)C(=O)N[C@@H](CC(C)C)C(=O)N[C@@H](CC(N)=O)C(=O)N[C@H](C(N)=O)[C@@H](C)O [Example 19, N^ε29-[(4S)-4-carboxy-4-[[2-[2-[2-[[2-[2-[2-[[(4S)-4-carboxy-4-[[(4S)-4-carboxy-4-(17-carboxyheptadecanoylamino)butanoyl]amino]butanoyl]amino]ethoxy]ethoxy]acetyl]amino]ethoxy]ethoxy]acetyl]amino]butanoyl]-[Aib2,Leu10,Lys16,Arg20,Glu21,Ala24,Leu27]-Glucagon amide] (H-H[Aib]QGTFTSDLSKYLDK([γGlu-AEEA-AEEA-γGlu-γGlu-C18 diacid])RRAREFVAWLLNT-NH2; N-terminus assumed) | 0.9
CC(C)C[C@H](NC(=O)[C@H](Cc1ccc(O)cc1)NC(=O)[C@H](CCCCN)NC(=O)[C@H](CO)NC(=O)[C@H](CC(C)C)NC(=O)[C@H](CC(=O)O)NC(=O)[C@H](CO)NC(=O)[C@@H](NC(=O)[C@H](Cc1ccccc1)NC(=O)[C@@H](NC(=O)CNC(=O)[C@H](Cc1c[nH]cn1)NC(=O)C(C)(C)NC(=O)[C@@H](N)Cc1c[nH]cn1)[C@@H](C)O)[C@@H](C)O)C(=O)N[C@@H](CCC(=O)O)C(=O)N[C@@H](CO)C(=O)N[C@@H](CCCNC(=N)N)C(=O)N[C@@H](CCCNC(=N)N)C(=O)N[C@@H](C)C(=O)N[C@@H](CCCNC(=N)N)C(=O)N[C@@H](CCC(=O)O)C(=O)N[C@@H](Cc1ccccc1)C(=O)N[C@H](C(=O)N[C@@H](CCC(N)=O)C(=O)N[C@@H](Cc1c[nH]c2ccccc12)C(=O)N[C@@H](CC(C)C)C(=O)N[C@@H](CC(C)C)C(=O)N[C@@H](CCCCNC(=O)CC[C@H](NC(=O)COCCOCCNC(=O)COCCOCCNC(=O)CC[C@H](NC(=O)CC[C@H](NC(=O)CCCCCCCCCCCCCCCCC(=O)O)C(=O)O)C(=O)O)C(=O)O)C(=O)N[C@H](C(N)=O)[C@@H](C)O)C(C)C [Example 30, N^ε28-[(4S)-4-carboxy-4-[[2-[2-[2-[[2-[2-[2-[[(4S)-4-carboxy-4-[[(4S)-4-carboxy-4-(17-carboxyheptadecanoylamino)butanoyl]amino]butanoyl]amino]ethoxy]ethoxy]acetyl]amino]ethoxy]ethoxy]acetyl]amino]butanoyl]-[Aib2,His3,Leu10,Glu15,Arg20,Glu21,Leu27,Lys28]-Glucagon amide] (H-H[Aib]HGTFTSDLSKYLESRRAREFVQWLLK([γGlu-AEEA-AEEA-γGlu-γGlu-C18 diacid])T-NH2; N-terminus assumed) | 1.4

The next compounds have a lower IC50 than those just listed; values first:

IC50 [nM] | Compound
0.5 | CC(C)C[C@H](NC(=O)[C@H](Cc1ccc(O)cc1)NC(=O)[C@H](CCCCN)NC(=O)[C@H](CO)NC(=O)[C@H](CC(C)C)NC(=O)[C@H](CC(=O)O)NC(=O)[C@H](CO)NC(=O)[C@@H](NC(=O)[C@H](Cc1ccccc1)NC(=O)[C@@H](NC(=O)CNC(=O)[C@H](CCC(N)=O)NC(=O)C(C)(C)NC(=O)[C@@H](N)Cc1c[nH]cn1)[C@@H](C)O)[C@@H](C)O)C(=O)N[C@@H](CC(=O)O)C(=O)N[C@@H](CCCCNC(=O)CC[C@H](NC(=O)CC[C@H](NC(=O)COCCOCCNC(=O)COCCOCCNC(=O)CC[C@H](NC(=O)CCCCCCCCCCCCCCCCC(=O)O)C(=O)O)C(=O)O)C(=O)O)C(=O)N[C@@H](CCCNC(=N)N)C(=O)N[C@@H](CCCNC(=N)N)C(=O)N[C@@H](C)C(=O)N[C@@H](CCCNC(=N)N)C(=O)N[C@@H](CCC(=O)O)C(=O)N[C@@H](Cc1ccccc1)C(=O)N[C@H](C(=O)N[C@@H](CCC(N)=O)C(=O)N[C@@H](Cc1c[nH]c2ccccc12)C(=O)N[C@@H](CC(C)C)C(=O)N[C@@H](CC(C)C)C(=O)N[C@@H](CC(N)=O)C(=O)N[C@H](C(N)=O)[C@@H](C)O)C(C)C [Example 10, N^ε16-[(4S)-4-carboxy-4-[[(4S)-4-carboxy-4-[[2-[2-[2-[[2-[2-[2-[[(4S)-4-carboxy-4-(17-carboxyheptadecanoylamino)butanoyl]amino]ethoxy]ethoxy]acetyl]amino]ethoxy]ethoxy]acetyl]amino]butanoyl]amino]butanoyl]-[Aib2,Leu10,Lys16,Arg20,Glu21,Leu27]-Glucagon amide] (H-H[Aib]QGTFTSDLSKYLDK([γGlu-γGlu-AEEA-AEEA-γGlu-C18 diacid])RRAREFVQWLLNT-NH2; N-terminus assumed)
0.4 | CC(C)C[C@H](NC(=O)[C@H](Cc1ccc(O)cc1)NC(=O)[C@H](CCCCN)NC(=O)[C@H](CO)NC(=O)[C@H](CC(C)C)NC(=O)[C@H](CC(=O)O)NC(=O)[C@H](CO)NC(=O)[C@@H](NC(=O)[C@H](Cc1ccccc1)NC(=O)[C@@H](NC(=O)CNC(=O)[C@H](CCC(N)=O)NC(=O)C(C)(C)NC(=O)[C@@H](N)Cc1c[nH]cn1)[C@@H](C)O)[C@@H](C)O)C(=O)N[C@@H](CCC(=O)O)C(=O)N[C@@H](CO)C(=O)N[C@@H](CCCNC(=N)N)C(=O)N[C@@H](CCCNC(=N)N)C(=O)N[C@@H](C)C(=O)N[C@@H](CCCNC(=N)N)C(=O)N[C@@H](CCC(=O)O)C(=O)N[C@@H](Cc1ccccc1)C(=O)N[C@H](C(=O)N[C@@H](CCC(N)=O)C(=O)N[C@@H](Cc1c[nH]c2ccccc12)C(=O)N[C@@H](CC(C)C)C(=O)N[C@@H](CC(C)C)C(=O)N[C@@H](CCCCNC(=O)CC[C@H](NC(=O)COCCOCCNC(=O)COCCOCCNC(=O)CC[C@H](NC(=O)CC[C@H](NC(=O)CCCCCCCCCCCCCCCCC(=O)O)C(=O)O)C(=O)O)C(=O)O)C(=O)N[C@H](C(N)=O)[C@@H](C)O)C(C)C [Example 20, N^ε29-[(4S)-4-carboxy-4-[[2-[2-[2-[[2-[2-[2-[[(4S)-4-carboxy-4-[[(4S)-4-carboxy-4-(17-carboxyheptadecanoylamino)butanoyl]amino]butanoyl]amino]ethoxy]ethoxy]acetyl]amino]ethoxy]ethoxy]acetyl]amino]butanoyl]-[Aib2,Leu10,Glu15,Arg20,Glu21,Leu27,Lys28]-Glucagon amide] (H-H[Aib]QGTFTSDLSKYLESRRAREFVQWLLK([γGlu-AEEA-AEEA-γGlu-γGlu-C18 diacid])T-NH2; N-terminus assumed)
0.3 | CC(C)C[C@H](NC(=O)[C@H](CC(C)C)NC(=O)[C@H](Cc1c[nH]c2ccccc12)NC(=O)[C@H](CCC(N)=O)NC(=O)[C@@H](NC(=O)[C@H](Cc1ccccc1)NC(=O)[C@H](CCC(=O)O)NC(=O)[C@H](CCCNC(=N)N)NC(=O)[C@H](C)NC(=O)[C@H](CCCNC(=N)N)NC(=O)[C@H](CCCNC(=N)N)NC(=O)[C@H](CO)NC(=O)[C@H](CCC(=O)O)NC(=O)[C@H](CC(C)C)NC(=O)[C@H](Cc1ccc(O)cc1)NC(=O)[C@H](CCCCN)NC(=O)[C@H](CO)NC(=O)[C@H](CC(C)C)NC(=O)[C@H](CC(=O)O)NC(=O)[C@H](CO)NC(=O)[C@@H](NC(=O)[C@H](Cc1ccccc1)NC(=O)[C@@H](NC(=O)CNC(=O)[C@H](CCC(N)=O)NC(=O)C(C)(C)NC(=O)[C@@H](N)Cc1c[nH]cn1)[C@@H](C)O)[C@@H](C)O)C(C)C)C(=O)N[C@@H](CC(N)=O)C(=O)N[C@@H](CCCCNC(=O)CC[C@H](NC(=O)COCCOCCNC(=O)COCCOCCNC(=O)CC[C@H](NC(=O)CC[C@H](NC(=O)CCCCCCCCCCCCCCCCC(=O)O)C(=O)O)C(=O)O)C(=O)O)C(N)=O [Example 21, N^ε29-[(4S)-4-carboxy-4-[[2-[2-[2-[[2-[2-[2-[[(4S)-4-carboxy-4-[[(4S)-4-carboxy-4-(17-carboxyheptadecanoylamino)butanoyl]amino]butanoyl]amino]ethoxy]ethoxy]acetyl]amino]ethoxy]ethoxy]acetyl]amino]butanoyl]-[Aib2,Leu10,Glu15,Arg20,Glu21,Leu27,Lys29]-Glucagon amide] (H-H[Aib]QGTFTSDLSKYLESRRAREFVQWLLNK([γGlu-AEEA-AEEA-γGlu-γGlu-C18 diacid])-NH2; N-terminus assumed)
